{"source": "paper PMC7726145", "about": "“Fine-tuning of lysine side chain modulates the activity of histone lysine methyltransferases” (Scientific Reports, 2020)", "format_in_all_cases": "biochemical", "key": {"GLP [1]": {"molecular_target": "T1, GLP (Homo sapiens, UniProt Q9H9B1)", "T1 construct": "GLP residues 951–1235; His6 (N); made in house; host or cells: Escherichia coli Rosetta BL21 (DE3)pLysS", "T1 sequence (Q9H9B1 982-1266)": "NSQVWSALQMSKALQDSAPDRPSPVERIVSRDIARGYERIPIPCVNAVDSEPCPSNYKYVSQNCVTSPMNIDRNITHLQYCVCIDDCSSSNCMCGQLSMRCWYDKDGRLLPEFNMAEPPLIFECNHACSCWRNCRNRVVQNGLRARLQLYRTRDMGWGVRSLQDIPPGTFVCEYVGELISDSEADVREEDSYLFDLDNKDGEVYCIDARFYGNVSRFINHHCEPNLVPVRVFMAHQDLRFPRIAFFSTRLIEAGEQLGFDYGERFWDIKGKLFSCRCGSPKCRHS", "test": "NMR analysis of GLP-catalyzed methylation", "conditions": "GLP 8 µM; peptide 400 µM; SAM 2 mM; Tris-d11 buffer pD 8.0; 1 h at 37 °C; 1H NMR and 1H-13C HSQC", "experimental": "(§1) Human KMTs enzymes were expressed and purified as previously described[36]–[38]. The methyltransferase plasmid (SETD8 residues 186–352, SETD7 residues 1–366, GLP residues 951–1235, G9a residues 913–1193) transformed into Escherichia coli Rosetta BL21 (DE3)pLysS cells. Cultures were grown at 37 °C in LB media containing kanamycin and chloramphenicol. Cells were grown to an OD600 of 0.5–0.6 (approximately 2.5–3 h), at which point they induced by isopropyl β-D-1-thiogalactopyranoside (IPTG) and they were transferred to a temperature of 16 °C overnight. After letting the cells grow at this temperature, they were then harvested and lysed by sonication. The lysate was centrifuged at high-speed to remove unbroken cells. The supernatant was then centrifuged to further clean the lysate. Purification of the N-terminally his6-tagged KMTs was performed using Ni–NTA affinity chromatography column, which was prewashed with lysis buffer. Target KMT enzyme was then eluted using a linear gradient concentration of imidazole. The elute was then concentrated with centrifugal concentrators (Millipore). All KMT enzymes were further purified by gel filtration on a Superdex 75 column (GE Healthcare) on an AKTA system."}, "G9a [2]": {"molecular_target": "T2, G9a (Homo sapiens, UniProt Q96KQ7)", "T2 construct": "G9a residues 913–1193; His6 (N); made in house; host or cells: Escherichia coli Rosetta BL21 (DE3)pLysS", "T2 sequence (Q96KQ7 913-1193)": "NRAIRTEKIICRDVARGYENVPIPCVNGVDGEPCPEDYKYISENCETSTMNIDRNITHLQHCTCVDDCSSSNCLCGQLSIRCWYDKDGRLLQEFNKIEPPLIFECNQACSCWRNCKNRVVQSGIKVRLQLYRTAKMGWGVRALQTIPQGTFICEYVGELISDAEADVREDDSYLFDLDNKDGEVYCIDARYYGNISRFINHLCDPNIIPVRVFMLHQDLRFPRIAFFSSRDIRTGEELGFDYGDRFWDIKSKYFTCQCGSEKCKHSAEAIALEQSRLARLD", "test": "Residual activity / inhibition of G9a-catalyzed methylation of H3K9", "conditions": "G9a 100 nM; 14-mer H3K9 5 µM; analogue 100 µM", "experimental": "as §1"}, "GLP [3]": {"molecular_target": "T1, GLP", "test": "Residual activity / inhibition of GLP-catalyzed methylation of H3K9", "conditions": "GLP 100 nM; 14-mer H3K9 5 µM; analogue 100 µM", "experimental": "as §1"}, "G9a [4]": {"molecular_target": "T2, G9a", "test": "MALDI-TOF MS methylation assay with G9a", "conditions": "G9a 2 µM, peptide 100 µM, SAM 500 µM, Tris 50 mM, pH 8.0, 1 h at 37 °C", "experimental": "as §1"}, "GLP [5]": {"molecular_target": "T1, GLP", "test": "MALDI-TOF MS methylation assay with GLP", "conditions": "GLP 2 µM, peptide 100 µM, SAM 500 µM, Tris 50 mM, pH 8.0, 1 h at 37 °C", "experimental": "as §1"}}}
{"substance": "ARTKQTARK^9STGGKA [H3K9, native histone peptide, N-terminal 15-residues of H3]", "values": [{"measurement": "methylation observed by NMR", "setting": "GLP [1]", "result": "resulted in a signal of H3K9me3"}, {"measurement": "inhibition of G9a in words", "setting": "G9a [2]", "result": "outcompetes H3KO9 and H3KN9 peptides for binding in the active site of G9a/GLP"}, {"measurement": "inhibition of GLP in words", "setting": "GLP [3]", "result": "outcompetes H3KO9 and H3KN9 peptides for binding in the active site of G9a/GLP"}, {"measurement": "methylation products with G9a", "setting": "G9a [4]", "result": "complete trimethylation"}, {"measurement": "methylation products with GLP", "setting": "GLP [5]", "result": "complete trimethylation"}]}
